Results from a melting point compilation (Tetko et al.; mined from patent text by program, amines drawn as free bases though some values may be those of a salt).

| Structure (SMILES) | melting point [°C] |
| --- | --- |
| O=[N+]([O-])c1cccc(C2=NCN(c3cccnc3)S2)c1 | 109 to 111 |
| O=c1c(CCCc2cnccn2)cc2cccnc2n1-c1cccc([N+](=O)[O-])c1 | 194 to 195 |
| NC(=O)c1ccc(I)c([N+](=O)[O-])c1 | 152 to 155 |
| CSC1=Nc2ccc(Cl)cc2Cn2nnnc21 | 131 to 133 |
| CCCCCCCCCCCCCCN(C(=O)CCCCCCCCCCC)C1(N)OC(CO)C(O)C(O)C1C(=O)C(N)C(=O)C(C)N (stereo unspecified) | 115 to 117 |
| CCCCOc1cc(/C=C(\OCC)C(=O)O)ccc1OCCc1ccc(NC(C)=O)cc1 | 160 |
| Cc1nc2c(N)nc3ccccc3c2n1CCCNS(C)(=O)=O | 236 to 238 |
| CCCCn1cc(C(=O)C(=O)O)c2cc(-c3cccc(OC)c3)ccc21 | 108 to 109 |
| c1ccc(CNn2cccc2)cc1 | 39 to 41 |
| CN1CCCN(Cc2nc(-c3ccc4c(c3)Nc3ccccc3S4)cs2)CC1 | 135 to 137 |
| COc1cc2c(c(OC)c1OC)CC(N1CCC(n3c(=O)[nH]c4ccccc43)CC1)C2=O (stereo unspecified) | 197 to 199 |
| COc1ccc2ccc(N3C(=O)C4=C(SCC(OC)CS4)C3OC(=O)N3CCN(C)CC3)nc2n1 (stereo unspecified) | 215 |
| CCOC(=O)COC(=O)c1cccnc1C#N | 74 |
| O=C(/C=C/[C@H]1CC[C@@H]2OC(=O)C[C@@H]21)COc1ccccc1 | 91 |
| CC(=CC(=O)c1ccc(Cl)cc1)N(C)C | 103 to 105 |
| O=C(O)c1cccc(-c2cccc(CC(=O)N(Cc3ccccc3)C3c4ccccc4CCC3Cc3ccccc3)c2)c1 (stereo unspecified) | 171 to 172 |
| Nc1ccccc1Cc1n[nH]c(Cl)n1 | 162 to 165 |
| CCC1CCCCCc2c1oc(=O)c(C(c1ccccc1)C1CC1)c2O (stereo unspecified) | 94 to 98 |
| [N-]=[N+]=NC(C(=O)O)C1c2ccccc2C=Cc2ccccc21 (stereo unspecified) | 119 to 120 |

| Structure (SMILES) | melting point [°C] |
| --- | --- |
| CC(=O)NC(=O)CSC(C)=O | 140 to 142 |
| N#Cc1ccc(N)c(F)c1F | 108 to 110 |
| O=C(O)C[C@H](NC(=O)Nc1ccc([N+](=O)[O-])cc1)C(=O)O | 118 to 120 |
| CCOC(=O)c1cn(C2CC2)c2cc(Br)c(F)c(C)c2c1=O | 195 to 197 |
| CCCCCCCCCCCCCCOC(=O)OC1CC(C)(C)N(C)C(C)(C)C1 | 32 to 34 |
| CCC(CC)Nc1c([N+](=O)[O-])cc(CC=NO)c(C(C)C)c1[N+](=O)[O-] | 114 to 115 |
| N[C@H]1Cc2ccccc2[C@@H]1O | 104 to 106 |
| NC(=O)c1nc(-c2ccccn2)n2c1CN=C(c1ccccc1Cl)c1cc(Cl)ccc1-2 | 255 to 257 |
| COc1cc(NC(C)=O)c(OC)cc1C#N | 165 to 168 |
| O=C(Cc1cccs1)c1c(O)c2cccnc2n(-c2ccccc2)c1=O | 197 to 199 |
| Cc1cc(=O)[nH]c2ccc(Cn3ccnc3)cc12 | 266 |
| CN1CCc2cc([N+](=O)[O-])c(O)cc2C(c2cccc3c2OCC3)C1 (single isomer, unassigned; (+)) | 122 to 123 |
| CC(C)(C)c1cc(OCCCCC(=O)O)cc(C(C)(C)C)c1 | 113 to 115 |
| CC(=O)Nc1cccc(C(=O)Nc2cc(NC(=O)c3cccc(N(C)C)c3)ccc2C)c1 | 178 to 179 |
| CC(C)C(=O)N(O)Cc1ccc2c(c1)Cc1ccccc1-2 | 163 to 166 |
| O=C(O)C1CNc2ccccc2CN1 (stereo unspecified) | 183 to 185 |
| C=C(CN(C)C)C(O)c1ncc2c(c1O)COC2c1ccc(Cl)cc1 (stereo unspecified) | 195 to 200 |
| CC#CCCCCCCCCCCCC | 36 to 37 |
| CC(Cc1c[nH]c2ccccc12)NC(=O)C=C1CCC(c2ccccc2)(N(C)C)CC1 (stereo unspecified) | 184 to 187 |

| Structure (SMILES) | melting point [°C] |
| --- | --- |
| Cc1c(Br)cc(C(C)(C)C)c(O)c1C1=Nc2cc(Cl)ccc2S(=O)(=O)N1 | 270 to 271 |
| CC(C)N1C(=O)NC(NC2CC2)NC1=O | 237 to 239 |
| CCN(CC)c1ccc(F)c2nc(Nc3ccc(Cl)cc3Cl)[nH]c12 | 204 to 205 |
| CNC(=O)Cc1ccc(N)c(N)c1 | 136 to 138 |
| O=C1Nc2ccc(Cl)cc2C1c1ncnc2nn(C3CCCCC3)cc12 (stereo unspecified) | 294 to 298 |
| COC(=O)Nc1ccc(Br)cn1 | 191 to 192 |
| COC(=O)N[C@H](C(=O)N[C@@H](Cc1ccccc1)[C@H](O)CN1C[C@H]2CCCC[C@H]2C[C@H]1C(=O)NC(C)(C)C)C(C)(C)S(C)(=O)=O | 190 to 194 |
| COc1cc(OC)nc(C(CC(=O)C(C)(C)C)C(=O)NS(C)(=O)=O)n1 (stereo unspecified) | 97 to 98 |
| CC(=O)COc1ccc2c(c1)C(=O)NC(C)(C)O2 | 125 to 126 |
| O=C(COc1ccccc1)NCCO[N+](=O)[O-] | 61 to 62 |
| CCOC(=O)CNc1ccc(Cl)c(Cl)c1 | 103 to 104 |
| CCCCC/C(=C\C=C\C(=O)O)c1ccc(OC)c(OC)c1 | 98 to 99.5 |
| Cn1nccc1C(=O)c1cc(O)c(O)c(Cl)c1Cl | 202 to 204 |
| OC(CSc1ncnc2c1cnn2CC1CO1)CN1CCN(C(c2ccccc2)c2ccccc2)CC1 (stereo unspecified) | 87 to 92 |
| CS(=O)(=O)NCCCCCC1CCSS1 (stereo unspecified) | 43 to 46 |
| CSCCCn1cc(C(Cc2ccccc2Br)=NO)c2ccc(Cl)c(Cl)c21 | 139 to 142 |
| CCCOCc1nc(C(C)(C)O)c(C(=O)OCCC)[nH]1 | 72 to 73 |
| CC(=O)OCC(=O)C1=CCC2C3CCC4=CC(=O)C=CC4(C)C34OC4CC12C (stereo unspecified) | 164 to 165 |

Results, then the molecule that gave them:

| melting point [°C] | Structure (SMILES) |
| --- | --- |
| 78 to 80 | CN(C)CCCC(c1ccncc1)S(=O)(=O)c1ccc(Cl)cc1 (stereo unspecified) |
| 73 to 74 | O=Cc1ccc(OCc2ccccc2)c(OCc2ccccc2)c1OCc1ccccc1 |
| 107 to 109 | Cc1ccc(-c2ccc(C#N)cc2)cc1 |
| 61 | CCOC(=O)c1ccc(OCCCCc2cc(C)no2)cc1 |
| 236 to 238 | O=C(O)c1ccc(OCC2CN(c3ccc([N+](=O)[O-])cc3)C(=O)O2)cc1 (stereo unspecified) |
| 173 to 178 | N=C(N)NCCc1ccc(OCCC2Oc3ccccc3N(Cc3ccc4ccccc4c3)C2=O)cc1 (stereo unspecified) |
| 122 to 123 | COc1ccc(CCNC(=O)CCc2ccccc2C(=O)NCCc2ccccc2)cc1OC |
| 156 | CSc1cc(C(C)(C)C)c(O)c(C(=O)Nc2ccc(S(=O)(=O)C(F)(F)F)cc2Cl)c1C |
| 185 to 186 | Cn1c(Oc2cccc(C(F)(F)F)c2)nc2c(-c3cccc(C(=O)NCC(N)=O)c3)cccc21 |
| 128 to 130 | CC(C)OC(=O)CCC(=O)c1ccc(Cl)c(S(N)(=O)=O)c1 |
| 196 to 198 | CCOC(=O)c1sc(-n2ccc(OCc3ccc(C(F)(F)F)o3)cc2=O)nc1C |
| 272 to 274 | N#Cc1ccc2cc(-c3ccc(O)cc3)oc2c1 |
| 211 to 214 | CC(C)Oc1cccc2c1C1=NCCN1c1c(-c3noc(C4CC4)n3)ncn1-2 |
| 63 to 64 | O=C1c2ccccc2C(=O)N1CCCCCCCCOc1cccc2ccccc12 |
| 178 to 183 | FC(F)(F)c1ccc(-c2cc(Oc3ccc4cccnc4c3)nnc2-c2ccccc2)cc1 |
| 112 | Cc1ccc(S(=O)c2nc(Cl)c([N+](=O)[O-])s2)cc1 (stereo unspecified) |
| 140 to 141 | NCCc1ccc(-n2cnc3cnc4ccc(Cl)cc4c32)cc1 |
| 153 to 156 | CCCCOc1ccc(C(=O)Nc2ccc3cc(CN4CCCC4C)cnc3c2C)cc1 (stereo unspecified) |
| 166 to 167 | Fc1cccc(NCc2nnc(-c3ccc4c(c3)CCO4)o2)c1 |
| 118 to 119 | COc1ccccc1CCc1ccccc1C(=O)O |
| 360 | COc1cc2ccc(-c3ccc(C(=O)O)cc3)cc2cc1C12CC3CC(CC(C3)C1)C2 |
| 100 to 102 | O=Cc1cc(O)ccc1-c1cccc(C(F)(F)F)c1 |
| 100 to 102 | COc1ccc(CCOc2cccc(-c3cccc(C(=O)O)c3)c2)cc1OC |

| melting point [°C] | Structure (SMILES) |
| --- | --- |
| 181 to 182 | COc1cc2ncnc(N3CCc4cc(OCc5ccccc5)ccc43)c2cc1OC |
| 80 to 82 | Cc1cccc(C2=NCSC2(c2ccnc(C)c2)N2CCOC2=O)c1 (stereo unspecified) |
| 126 to 128 | CC(=O)Oc1ccc2c(c1)Cc1cc(C(C)=O)ccc1-2 |
| 210 | CS(=O)(=O)C(=C1CN(C(c2ccccc2)c2ccccc2)C1)c1ccccc1 |
| 117 | COc1ccc(NC=O)c(COC=O)c1 |
| 93 | COC(=O)C1CCn2c1cc(Br)c2C(=O)c1ccccc1 (stereo unspecified) |
| 97 | Cc1cccc(-c2nc3ccc(OCCCCl)cc3n2Cc2ccccc2)c1 |
| 108 | CCCc1nc(SC(F)F)c(C(=O)O)n1Cc1ccc(-c2ccccc2S(=O)(=O)NC(=O)NCCCc2ccccc2)cc1 |
| 185 to 186 | O=C(c1ccccc1)c1cnn2c(-c3ccncc3)ccnc12 |
| 116 | CSc1ccc(Cn2nc(-c3ccc(SC)cc3)c(-c3ccc(F)cc3)cc2=O)cc1 |
| 175 to 177 | Cc1cc2ncn(Cc3ccc([N+](=O)[O-])cc3)c2cc1C |
| 143 to 145 | O=S(=O)(NCCc1cccnc1)c1ccc(Cl)cc1 |
| 116 to 117 | COc1ccc(C2(/C=C/c3cccc(C#N)c3)CCC(=O)CC2)cc1OC1CCCC1 |
| 130 to 132 | O=C1C=C(Br)C(=O)c2ccccc21 |
| 144 to 145 | O=C(c1ccccc1Cl)c1cc(Cl)ccc1C#CCN1C(=O)c2ccccc2C1=O |
| 122 to 124 | O=C(OCc1ccccc1)[C@@H](CC1=CCCC1)OS(=O)(=O)c1ccccc1[N+](=O)[O-] |
| 119 to 122 | CC(CF)(CF)C(=O)C(Oc1ccc(Cl)cc1)n1cnnc1 (stereo unspecified) |
| 182 to 183 | COc1ccc(-c2noc(C(F)F)c2-c2ccc(S(N)(=O)=O)cc2)cc1 |
| 179 to 181 | Cc1ccccc1-c1noc2c(Cl)c(OCC(=O)O)ccc12 |
| 263 | O=C(NC(Cc1ccc(OCc2ccc(C(F)(F)F)cc2)cc1)C(=O)O)c1cn2ccc(-c3ccc(Cl)cc3)cc2n1 (stereo unspecified) |
| 298 to 300 | Cc1ccc(-c2ncnc(-c3cccc(C(=O)O)c3)n2)cc1 |
| 98 to 110 | COc1cccc(Cn2c(=O)c3c(N4CCN(C)CC4)cc(Cl)cc3n(Cc3ccccc3)c2=O)c1 |
